# Legend:
# Assay type in all cases: cell-based, human
# RS4;11 cells [1] = assay: FACS analysis (subG1), RS4;11; conditions: 1 μM
# Experimental: (§1) At each time point, the cells were subjected to MTT assay (left), Caspase 3 activity assay (middle) and FACS analysis (right). The results of MTT and Caspase 3 activity assays are calculated as a ratio against the value for DMSO-treated cells. Vertical bar in each column indicates standard deviation determined by triplicate assays.
# (§2) To determine the cause for the reduction in cell numbers, the 5-ITU-treated cells were subjected to assays determining apoptotic cell death (caspase 3 activity assay and FACS analysis).
# (§3) Methods including Recombinant protein expression in K562 and in KG1 cells, RNA interference, Western blot analysis, and MTT assay, Caspase 3 Activity assay and FACS analysis are available in online Supporting Information.
# RS4;11 cells [2] = assay: Caspase 3 activity assay, RS4;11; conditions: 1 μM, 24 hr, ratio vs DMSO
# Experimental: as §1, §2, §3
# SEMK2 cells [3] = assay: FACS analysis (subG1), SEMK2; conditions: 1 μM
# Experimental: as §1, §2, §3
# SEMK2 cells [4] = assay: Caspase 3 activity assay, SEMK2; conditions: 1 μM, 24 hr, ratio vs DMSO
# Experimental: as §1, §2, §3
# SEMK2 cells [5] = assay: MTT assay, SEMK2; conditions: SEMK2, t(4;11); 1 μM; 24, 48 and 72 hr; ratio vs DMSO
# Experimental: as §1, §3
# 380 cells = assay: MTT assay, 380; conditions: 380 control cells lacking ALL1 abnormality; 1 μM; 24, 48 and 72 hr
# Experimental: as §1, §3
# RS4;11 cells [6] = assay: MTT assay, RS4;11; conditions: RS4;11, t(4;11); 1 μM; 24, 48 and 72 hr; ratio vs DMSO
# Experimental: as §1, §3
# 697 cells = assay: MTT assay, 697; conditions: 697 control cells lacking ALL1 abnormality; 1 μM; 24, 48 and 72 hr
# Experimental: as §1, §3
smiles,measurement,setting,value
"Nc1ncnc2c1c(I)cn2[C@@H]1O[C@H](CO)[C@@H](O)[C@H]1O [5-ITU, 5-iodotubercidin]",cells at the subG1 phase (FACS),RS4;11 cells [1],high proportion
same,caspase 3 activity,RS4;11 cells [2],Increased caspase 3 activity
same,cells at the subG1 phase (FACS),SEMK2 cells [3],high proportion
same,caspase 3 activity,SEMK2 cells [4],Increased caspase 3 activity
same,cell number (MTT assay),SEMK2 cells [5],reduction in numbers
same,cell number (MTT assay),380 cells,no diminution in the number
same,cell number (MTT assay),RS4;11 cells [6],reduction in numbers
same,cell number (MTT assay),697 cells,no diminution in the number

# Reference: patent US9297012B2, “Methods and compositions for inducing deregulation of EPHA7 and ERK phosphorylation in human acute leukemias” (The Ohio State University Research Foundation, priority 2007, dated 2016)
